{"source": "ChEMBL document CHEMBL1158693", "about": "“Antiinsectan decaturin and oxalicine analogues from Penicillium thiersii” (2005)", "assay_type_in_all_cases": "functional", "design_in_all_cases": "scale not given: the % may be the effect or the level left", "key": {"Spodoptera frugiperda [1]": {"test_system": "Spodoptera frugiperda", "test": "Antiinsecticidal activity against Spodoptera frugiperda assessed as reduction in growth rate at 100 ppm relative to control"}, "Spodoptera frugiperda [2]": {"test_system": "Spodoptera frugiperda", "test": "Antiinsecticidal activity against Spodoptera frugiperda assessed as reduction in growth rate at 360 ppm relative to control"}, "Spodoptera frugiperda [3]": {"test_system": "Spodoptera frugiperda", "test": "Antiinsecticidal activity against Spodoptera frugiperda assessed as reduction in growth rate at 80 ppm relative to control"}}}
{"smiles": "C=C(C)[C@]1(O)CC[C@]2(C)[C@H](CC=C(C)[C@]23Oc2cc(-c4cccnc4)oc(=O)c2[C@@H]3O)[C@@]12CCC(=O)OC2", "note": "[OXALICINE B]", "values": [{"measurement": "Activity", "setting": "Spodoptera frugiperda [1]", "value": 62, "unit": "%"}]}
{"smiles": "CC1=CC[C@@H]2[C@@]3(C)CCC(=O)C(C)(C)[C@@H]3CC[C@@]2(C)[C@]12Cc1c(cc(-c3cccnc3)oc1=O)O2", "note": "[DECATURIN D]", "values": [{"measurement": "Activity", "setting": "Spodoptera frugiperda [1]", "value": 77, "unit": "%"}]}
{"smiles": "C=C(C)[C@@H]1CC[C@]2(C)[C@H](CC=C(C)[C@]23Oc2cc(-c4cccnc4)oc(=O)c2[C@@H]3O)[C@@]12CCC(=O)OC2", "note": "[OXALICINE A]", "values": [{"measurement": "Activity", "setting": "Spodoptera frugiperda [2]", "value": 98, "unit": "%"}]}
{"smiles": "CC1=CC[C@@H]2[C@]34CC[C@](O)(OC3)C(C)(C)[C@@H]4CC[C@@]2(C)[C@@]12Oc1cc(-c3cccnc3)oc(=O)c1[C@@H]2O", "note": "[DECATURIN B]", "values": [{"measurement": "Activity", "setting": "Spodoptera frugiperda [1]", "value": 89, "unit": "%"}]}
{"smiles": "CC1=CC[C@@H]2[C@]34CC[C@](O)(OC3)C(C)(C)[C@@H]4CC[C@@]2(C)[C@]12Cc1c(cc(-c3cccnc3)oc1=O)O2", "note": "[DECATURIN C]", "values": [{"measurement": "Activity", "setting": "Spodoptera frugiperda [3]", "value": 28, "unit": "%"}]}
